Columns and labels:
Experiment in all cases: relative viability (nuclei count vs DMSO), 5 days (fraction); higher = more cells survive
Everolimus = compound: CO[C@H]1C[C@@H]2CC[C@@H](C)[C@@](O)(O2)C(=O)C(=O)N2CCCC[C@H]2C(=O)O[C@H]([C@H](C)C[C@@H]2CC[C@@H](OCCO)[C@H](OC)C2)CC(=O)[C@H](C)/C=C(\C)[C@@H](O)[C@@H](OC)C(=O)[C@H](C)C[C@H](C)/C=C/C=C/C=C/1C [Everolimus]
In short: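 Nuclei counted with MetaXpress define viability as the ratio of treated to vehicle wells, given as a median across plates. The lung cancer cell lines were in 1536-well plates, pinned with five √10-spaced library-drug doses and imaged at 4× after 5 days and Hoechst staining. Plates passed with control CV below 25% and at least one doubling.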

Everolimus + Phenformin = compound: CO[C@H]1C[C@@H]2CC[C@@H](C)[C@@](O)(O2)C(=O)C(=O)N2CCCC[C@H]2C(=O)O[C@H]([C@H](C)C[C@@H]2CC[C@@H](OCCO)[C@H](OC)C2)CC(=O)[C@H](C)/C=C(\C)[C@@H](O)[C@@H](OC)C(=O)[C@H](C)C[C@H](C)/C=C/C=C/C=C/1C [Everolimus] + N=C(N)NC(=N)NCCc1ccccc1 [Phenformin] (partner 250 µM)
In short: (§1)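 Lung cancer cell lines were seeded in 1536-well plates and dosed by pin tool the next day, with either a single drug or a fixed anchor-drug dose combined with five library-drug doses (not always all listed) spaced in √10 steps. Five days later, one step fixed the cells and stained their nuclei (final 0.05% Triton X-100, 1% formaldehyde, 1 ug/ml Hoechst), and nuclei were counted on 4× images. Relative viability is the nuclei count in treated wells divided by the count in vehicle wells, and each value is the median of duplicate plates.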

Everolimus + Olaparib = compound: CO[C@H]1C[C@@H]2CC[C@@H](C)[C@@](O)(O2)C(=O)C(=O)N2CCCC[C@H]2C(=O)O[C@H]([C@H](C)C[C@@H]2CC[C@@H](OCCO)[C@H](OC)C2)CC(=O)[C@H](C)/C=C(\C)[C@@H](O)[C@@H](OC)C(=O)[C@H](C)C[C@H](C)/C=C/C=C/C=C/1C [Everolimus] + O=C(c1cc(Cc2n[nH]c(=O)c3ccccc23)ccc1F)N1CCN(C(=O)C2CC2)CC1 [Olaparib] (partner 8 µM)
In short: as §1

Everolimus + Trametinib = compound: CO[C@H]1C[C@@H]2CC[C@@H](C)[C@@](O)(O2)C(=O)C(=O)N2CCCC[C@H]2C(=O)O[C@H]([C@H](C)C[C@@H]2CC[C@@H](OCCO)[C@H](OC)C2)CC(=O)[C@H](C)/C=C(\C)[C@@H](O)[C@@H](OC)C(=O)[C@H](C)C[C@H](C)/C=C/C=C/C=C/1C [Everolimus] + CC(=O)Nc1cccc(-n2c(=O)n(C3CC3)c(=O)c3c(Nc4ccc(I)cc4F)n(C)c(=O)c(C)c32)c1 [Trametinib] (partner 0.02 µM)
In short: as §1

Cell Line | relative viability (Everolimus; 0.01 µM) | relative viability (Everolimus; 0.03162 µM) | relative viability (Everolimus; 0.1 µM) | relative viability (Everolimus; 0.3162 µM) | relative viability (Everolimus; 1 µM) | relative viability (Everolimus + Phenformin; first compound 0.01 µM) | relative viability (Everolimus + Phenformin; first compound 0.03162 µM) | relative viability (Everolimus + Phenformin; first compound 0.1 µM) | relative viability (Everolimus + Phenformin; first compound 0.3162 µM) | relative viability (Everolimus + Phenformin; first compound 1 µM) | relative viability (Everolimus + Olaparib; first compound 0.01 µM) | relative viability (Everolimus + Olaparib; first compound 0.03162 µM) | relative viability (Everolimus + Olaparib; first compound 0.1 µM) | relative viability (Everolimus + Olaparib; first compound 0.3162 µM) | relative viability (Everolimus + Olaparib; first compound 1 µM) | relative viability (Everolimus + Trametinib; first compound 0.01 µM) | relative viability (Everolimus + Trametinib; first compound 0.03162 µM) | relative viability (Everolimus + Trametinib; first compound 0.1 µM) | relative viability (Everolimus + Trametinib; first compound 0.3162 µM) | relative viability (Everolimus + Trametinib; first compound 1 µM)
NCI-H1355 | 0.666 | 0.537 | 0.552 | 0.628 | 0.48 | 0.394 | 0.364 | 0.335 | 0.332 | 0.345 | 0.486 | 0.514 | 0.426 | 0.536 | 0.48 | 0.244 | 0.24 | 0.215 | 0.263 | 0.244
NCI-H1975 | 0.73 | 0.798 | 0.793 | 0.734 | 0.677 | 0.378 | 0.383 | 0.387 | 0.367 | 0.323 | 0.752 | 0.654 | 0.697 | 0.691 | 0.655 | 0.389 | 0.373 | 0.287 | 0.276 | 0.226
LK-2 | 0.844 | 0.554 | 0.546 | 0.491 | 0.487 | 0.299 |  | 0.154 | 0.166 | 0.233 | 0.594 | 0.603 | 0.413 | 0.403 | 0.351 | 0.688 | 0.468 | 0.425 | 0.421 | 0.438
NCI-H661 | 0.812 | 0.814 | 0.786 | 0.746 | 0.667 | 0.253 | 0.259 | 0.258 | 0.271 | 0.281 | 0.672 | 0.64 | 0.576 | 0.593 | 0.491 | 0.407 | 0.376 | 0.343 | 0.409 | 0.318
NCI-H1648 | 0.646 | 0.778 | 0.718 | 0.596 | 0.654 |  |  |  |  |  | 0.577 | 0.473 | 0.613 | 0.597 | 0.482 | 0.388 | 0.435 | 0.395 | 0.307 | 0.325
HCC-366 | 0.955 | 0.961 | 0.935 | 0.929 | 0.972 | 0.59 | 0.613 | 0.601 | 0.528 | 0.582 | 0.337 | 0.271 | 0.302 | 0.27 | 0.284 | 0.258 | 0.245 | 0.257 | 0.227 | 0.225
HOP-62 | 0.901 | 0.856 | 0.767 | 0.777 | 0.794 | 0.583 | 0.579 | 0.495 | 0.513 | 0.535 | 0.354 | 0.434 | 0.5 | 0.505 | 0.339 | 0.263 | 0.211 | 0.248 | 0.2 | 0.195
NCI-H1703 | 0.455 | 0.373 | 0.456 | 0.529 | 0.63 |  |  |  |  |  | 0.36 | 0.218 | 0.333 | 0.233 | 0.337 |  |  |  |  | 
NCI-H1944 | 0.636 | 0.687 | 0.575 | 0.789 | 0.626 | 0.183 | 0.19 | 0.165 | 0.208 | 0.222 | 0.389 | 0.329 | 0.325 | 0.35 | 0.351 | 0.311 | 0.303 | 0.341 | 0.312 | 0.298
SW 1573 | 0.585 | 0.555 | 0.546 | 0.544 | 0.519 | 0.205 | 0.238 | 0.175 | 0.182 | 0.12 | 0.264 | 0.384 | 0.314 | 0.268 | 0.3 | 0.3 | 0.311 | 0.291 | 0.303 | 0.281
LU99A | 0.557 | 0.644 | 0.626 | 0.591 | 0.679 | 0.665 | 0.662 | 0.605 | 0.503 | 0.587 | 0.246 | 0.21 | 0.226 | 0.216 | 0.236 | 0.35 | 0.268 | 0.298 | 0.314 | 0.354
EBC-1 | 0.415 | 0.385 | 0.41 | 0.416 | 0.408 |  |  |  |  |  | 0.505 | 0.324 | 0.31 | 0.349 | 0.334 |  |  |  |  | 
ABC-1 | 0.604 | 0.822 | 0.781 | 0.707 | 0.875 | 0.223 | 0.249 | 0.21 | 0.203 | 0.264 | 1.17 |  | 1 |  | 0.749 |  |  |  |  | 
NCI-H1563 | 0.767 | 0.761 | 0.715 | 0.728 | 0.676 | 0.658 | 0.661 | 0.657 | 0.657 | 0.592 |  |  |  |  |  |  |  |  |  | 
NCI-H1299 | 0.969 | 0.98 | 1.01 | 0.974 | 1.04 |  |  |  |  |  | 0.953 | 0.987 | 0.994 | 1.04 | 0.841 |  |  |  |  | 
A549 | 0.602 | 0.412 | 0.371 | 0.423 | 0.399 | 0.164 | 0.122 | 0.154 | 0.0954 | 0.157 | 0.204 | 0.234 | 0.232 | 0.237 | 0.215 |  |  |  |  | 
IA-LM | 0.601 | 0.396 | 0.378 | 0.374 | 0.406 |  |  |  |  |  | 0.759 | 0.613 | 0.603 | 0.741 | 0.665 |  |  |  |  | 
Calu-6 | 0.956 | 0.922 | 0.892 | 0.88 | 0.988 |  |  |  |  |  | 0.624 | 0.68 | 0.646 | 0.552 | 0.705 |  |  |  |  | 
